# Data taken from patent US20200147039A1, “COMPOUNDS USEFUL IN INHIBITING HUMAN TREFOIL FACTOR 3” (NATIONAL UNIVERSITY OF SINGAPORE, priority 2017, published 2020).
# Tests used:
# [1] = tested on: MCF7; assay: qPCR analysis of mRNA levels of genes associated with oncogenic progression, MCF7; assay type: cell-based, human; settings: MCF7, 10 μM
# Method: (§1) Total RNA was isolated from cells using TRIzol Plus RNA Purification system as previously described in Pandey V et al., Endocrinology. 2010; 151(3):909-920. qPCR assays were performed as previously described in Pandey V et al., Endocrinology. 2010; 151(3):909-920; and Pandey V et al., Endocrinology. 2008; 149(8):3909-3919. Gene expression analysis was performed as previously described in Pandey V et al., Endocrinology. 2010; 151(3):909-920; and Pandey V et al., Endocrinology. 2008; 149(8):3909-3919.
# [2] = tested on: RL95-2; assay: AlamarBlue cell viability assay, RL95-2; assay type: cell-based; settings: Homo sapiens, Endometrial
# Method: (§2) The human immortalized mammary epithelial cell lines, MCF10A, and MCF12A; and immortalized hepatocellular epithelial cell line, LO2 were obtained from the American Type Culture Collection (ATCC, Rockville, Md.) and were cultured as per ATCC propagation instructions. MC cell lines, MCF7, T47D, BT474, BT20, MDA-MB-361, MDA-MB-436, MDA-MB-468, and MDA-MB-231; endometrial carcinoma cell lines, Ishikawa, ECC1, RL95-2 and AN3; hepatocellular carcinoma cell lines, Hep3B, H2P, and H2M; colon carcinoma cell lines, DLD-1, and Caco-2; and prostate carcinoma cell lines, PC3, LNCaP, and DU145 were obtained from the American Type Culture Collection (ATCC, Rockville, Md.). Pancreatic carcinoma cell lines, AsPC-1 and BxPC-3; Lung carcinoma cell lines, HCC-827, NCI-H1975, HCC-4006, PC-14, and NCI-H1299; and Thyroid carcinoma cell lines HTH83, CAL62, T238, and OGK-M were obtained from Prof. H. Phillip Koeffler's laboratory at The Cancer Science Institute of Singapore, National University of Singapore (NUS). Gastric carcinoma cell lines, AGS, MKN-28, MKN-45, and A2-528 were obtained from Prof. […]
# (§3) In table 9 IC50 values of compound 43 compound library in several cancer cell lines are tabulated, using an AlamarBlue® cell viability assay as previously described in Pandey V et al., Breast Cancer Res. 2014; 16(5):429. Statistical analysis was assessed by using GraphPad Prism5. […]
# [3] = tested on: MDA-MB-231; assay: AlamarBlue cell viability assay, MDA-MB-231; assay type: cell-based; settings: Homo sapiens, Mammary
# Excerpt: (§4) (A) Inhibitory concentration 50% (IC50) values for compound 43 in the MC cell lines are tabulated, using an AlamarBlue™ cell viability assay as previously described in Pandey V et al., Breast Cancer Res. 2014; 16(5):429. (B) Measured dose-dependent manner effect of compound 43 on the viability of MC cells (left-side, TFF3-high and right, TFF3-low) using AlamarBlue™ viability assay as previously described (ibid). (C) Apoptotic cell death of mammary carcinoma cell lines measured after treatment with 10 μM compound 43 using flow cytometry analysis at 24 hour as described previously in Keerthy H K et al., PloS one. 2014; 9(9):e107118. Annexin V-FITC staining is indicated on the X-axis and PI staining on the Y-axis. […] Acquisition of Annexin V and PI data were represented as percentage (%) in each quadrant. Note: CM, conditioned media; MCF10A and MCF12A, non-transformed immortalized-mammary epithelial cell line. Points are mean of triplicate experiments; bars, ±SD. Statistical significance was assessed by using an unpaired two-tailed Student's t test (P<0.05 was considered as significant) using GraphPad Prism5. […]
# as §3
# [4] = tested on: BT474; assay: qPCR analysis of mRNA levels of genes associated with oncogenic progression, BT474; assay type: cell-based, human; settings: BT474, 10 μM
# Method: as §1
# [5] = tested on: Caco-2; assay: AlamarBlue cell viability assay, Caco-2; assay type: cell-based; settings: Homo sapiens, Colon
# Method: as §2, §3
# [6] = tested on: MDA-MB-361; assay: AlamarBlue cell viability assay, MDA-MB-361; assay type: cell-based; settings: Homo sapiens, Mammary
# Excerpt: as §4, §3
# [7] = tested on: MKN-45; assay: AlamarBlue cell viability assay, MKN-45; assay type: cell-based; settings: Homo sapiens, Gastric
# Method: as §2, §3
# [8] = tested on: BxPC-3; assay: AlamarBlue cell viability assay, BxPC-3; assay type: cell-based; settings: Homo sapiens, Pancreatic
# Method: as §2, §3
compound,measurement,setting,value
"Cc1cc(-c2ccc(C3C(C#N)=C(N)Oc4c3c(=O)oc3ccccc43)cc2)cnc1F (centres unmarked) [Compound 43, 2-Amino-4-(4-(6-fluoro-5-methylpyridin-3-yl)phenyl)-5-oxo-4H,5H-pyrano[3,2-c]chromene-3-carbonitrile]","APAF1 mRNA, Fold change relative to vehicle control",[1],0.94 fold
same,"ATM mRNA, Fold change relative to vehicle control",[1],0.32 fold
same,"BAD mRNA, Fold change relative to vehicle control",[1],0.09 fold
same,"BAK1 mRNA, Fold change relative to vehicle control",[1],2.09 fold
same,"BAX mRNA, Fold change relative to vehicle control",[1],18.54 fold
same,"BCL2L1 mRNA, Fold change relative to vehicle control",[1],0.04 fold
same,"BCL2 mRNA, Fold change relative to vehicle control",[1],0.06 fold
same,"BCLAF1 mRNA, Fold change relative to vehicle control",[1],0.87 fold
same,"BRCA1 mRNA, Fold change relative to vehicle control",[1],2.00 fold
same,"CASP7 mRNA, Fold change relative to vehicle control",[1],30.71 fold
same,"CCND1 mRNA, Fold change relative to vehicle control",[1],0.01 fold
same,"CDC25A mRNA, Fold change relative to vehicle control",[1],0.49 fold
same,"CDK2 mRNA, Fold change relative to vehicle control",[1],0.15 fold
same,"CDK4 mRNA, Fold change relative to vehicle control",[1],0.18 fold
same,"CDKN1A mRNA, Fold change relative to vehicle control",[1],114.92 fold
same,"CDKN1B mRNA, Fold change relative to vehicle control",[1],11.08 fold
same,"CDKN2A mRNA, Fold change relative to vehicle control",[1],5.45 fold
same,"CFLAR mRNA, Fold change relative to vehicle control",[1],0.02 fold
same,"CHEK2 mRNA, Fold change relative to vehicle control",[1],1.14 fold
same,"Cyclin E1 mRNA, Fold change relative to vehicle control",[1],0.01 fold
same,"E2F1 mRNA, Fold change relative to vehicle control",[1],1.80 fold
same,"GZMA mRNA, Fold change relative to vehicle control",[1],0.93 fold
same,"HTATIP2 mRNA, Fold change relative to vehicle control",[1],2.87 fold
same,"MDM2 mRNA, Fold change relative to vehicle control",[1],6.62 fold
same,"RB1 mRNA, Fold change relative to vehicle control",[1],1.00 fold
same,"S100A4 mRNA, Fold change relative to vehicle control",[1],1.49 fold
same,"TERT mRNA, Fold change relative to vehicle control",[1],0.11 fold
same,"TNFRSF1A mRNA, Fold change relative to vehicle control",[1],1.15 fold
same,"TNFRSF10B mRNA, Fold change relative to vehicle control",[1],1.05 fold
same,"TNFRSF25 mRNA, Fold change relative to vehicle control",[1],1.41 fold
same,"TP53 mRNA, Fold change relative to vehicle control",[1],282.98 fold
same,IC50,[2],90.5 µM
same,IC50,[3],408 µM
same,"APAF1 mRNA, Fold change relative to vehicle control",[4],1.27 fold
same,"ATM mRNA, Fold change relative to vehicle control",[4],0.80 fold
same,"BAD mRNA, Fold change relative to vehicle control",[4],0.04 fold
same,"BAK1 mRNA, Fold change relative to vehicle control",[4],1.92 fold
same,"BAX mRNA, Fold change relative to vehicle control",[4],21.55 fold
same,"BCL2L1 mRNA, Fold change relative to vehicle control",[4],0.05 fold
same,"BCL2 mRNA, Fold change relative to vehicle control",[4],0.02 fold
same,"BCLAF1 mRNA, Fold change relative to vehicle control",[4],1.26 fold
same,"BRCA1 mRNA, Fold change relative to vehicle control",[4],0.47 fold
same,"CASP7 mRNA, Fold change relative to vehicle control",[4],103.76 fold
same,"CCND1 mRNA, Fold change relative to vehicle control",[4],0.04 fold
same,"CDC25A mRNA, Fold change relative to vehicle control",[4],0.15 fold
same,"CDK2 mRNA, Fold change relative to vehicle control",[4],1.05 fold
same,"CDK4 mRNA, Fold change relative to vehicle control",[4],0.66 fold
same,"CDKN1A mRNA, Fold change relative to vehicle control",[4],27.15 fold
same,"CDKN1B mRNA, Fold change relative to vehicle control",[4],0.14 fold
same,"CDKN2A mRNA, Fold change relative to vehicle control",[4],1.43 fold
same,"CFLAR mRNA, Fold change relative to vehicle control",[4],9.08 fold
same,"CHEK2 mRNA, Fold change relative to vehicle control",[4],0.85 fold
same,"Cyclin E1 mRNA, Fold change relative to vehicle control",[4],0.08 fold
same,"E2F1 mRNA, Fold change relative to vehicle control",[4],0.51 fold
same,"GZMA mRNA, Fold change relative to vehicle control",[4],3.66 fold
same,"HTATIP2 mRNA, Fold change relative to vehicle control",[4],6.64 fold
same,"MDM2 mRNA, Fold change relative to vehicle control",[4],0.99 fold
same,"RB1 mRNA, Fold change relative to vehicle control",[4],0.86 fold
same,"S100A4 mRNA, Fold change relative to vehicle control",[4],4.80 fold
same,"TERT mRNA, Fold change relative to vehicle control",[4],0.08 fold
same,"TNFRSF1A mRNA, Fold change relative to vehicle control",[4],35.64 fold
same,"TNFRSF10B mRNA, Fold change relative to vehicle control",[4],9.22 fold
same,"TNFRSF25 mRNA, Fold change relative to vehicle control",[4],7.11 fold
same,"TP53 mRNA, Fold change relative to vehicle control",[4],459.09 fold
same,IC50,[5],2.84 µM
same,IC50,[6],1.61 µM
same,IC50,[7],6.81 µM
same,IC50,[8],2.56 µM
